Experimental data published in the supplement of paper PMC10307832.

How the values were obtained:
Assay in all cases: relative viability (nuclei count vs DMSO), 5 days (fraction); higher = more cells survive
[1] = compound: C1=CC=C(C(=C1)C2=CC=C(C=C2)C3=CSC4=C3C(=C(C(=O)N4)C#N)O)O
Method in brief: (§1)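 Acceptance criteria were a control CV below 25% and at least one doubling per plate. Lung cancer cell lines in 1536-well plates got five library-drug doses (not always all listed) √10 apart by pinning and were left 5 days with no medium change. Viability divides treated-well nuclei by vehicle-well nuclei and is the median across plates. Nuclei were counted by MetaXpress from 4× Hoechst images.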

[2] = compound: CC1=CN2C(=O)C=C(N=C2C(=C1)C(C)NC3=CC=CC=C3)N4CCOCC4 [TGX 221]
Method in brief: as §1

[3] = compound: O=C(CCCCCCNC(=O)c1cnc(N(c2ccccc2)c2ccccc2)nc1)NO [Ricolinostat]
Method in brief: as §1

| Cell Line | relative viability ([1]; 0.08 µM) | relative viability ([1]; 0.253 µM) | relative viability ([1]; 0.8 µM) | relative viability ([1]; 2.53 µM) | relative viability ([1]; 8 µM) | relative viability ([2]; 0.08 µM) | relative viability ([2]; 0.253 µM) | relative viability ([2]; 0.8 µM) | relative viability ([2]; 2.53 µM) | relative viability ([2]; 8 µM) | relative viability ([3]; 0.08 µM) | relative viability ([3]; 0.253 µM) | relative viability ([3]; 0.8 µM) | relative viability ([3]; 2.53 µM) |
| --- | --- | --- | --- | --- | --- | --- | --- | --- | --- | --- | --- | --- | --- | --- |
| LCLC-97TM1 | 0.895 | 1.34 | 1.02 | 1.08 | 1.03 | 0.97 | 0.76 | 1.02 | 0.863 | 0.924 | 0.809 | 1.06 | 0.997 | 0.855 |
| LCLC-103H | 1.02 | 0.984 | 1.05 | 0.984 | 1 | 0.903 | 0.983 | 0.878 | 0.928 | 0.959 | 0.778 | 0.957 | 1.04 | 1.08 |
| LK-2 | 0.724 | 0.922 | 1.11 | 0.918 | 0.71 | 0.986 | 0.878 | 0.914 | 0.996 | 1.1 | 0.967 | 0.999 | 1 | 0.899 |
| LOU-NH91 | 0.941 | 1.06 | 0.962 | 0.896 | 0.894 | 0.914 | 1 | 0.948 | 0.948 | 0.901 | – | 1.03 | 0.94 | 0.98 |
| LU99A | 0.984 | 0.905 | 0.95 | 0.89 | 0.911 | 0.859 | 0.857 | 0.896 | 0.89 | 0.981 | 0.877 | 0.926 | 0.865 | 0.641 |
| LXF-289 | 0.936 | 1.02 | 1 | 1.06 | 0.969 | 1.03 | 0.98 | 1.03 | 0.984 | 1.04 | 0.994 | 0.972 | 1 | 0.968 |
| NCI-H23 | 0.948 | 1.03 | 1.07 | 0.978 | 0.805 | 0.993 | 0.861 | 0.909 | 0.825 | 0.932 | 0.779 | 1.03 | 0.851 | 0.895 |
| NCI-H322M | 0.866 | 0.918 | 0.95 | 0.949 | 0.96 | 0.876 | 0.875 | 0.904 | 0.801 | 0.841 | – | 0.964 | 0.958 | 0.923 |
| NCI-H358 | 0.905 | 0.937 | 1.04 | 0.907 | 0.716 | 0.914 | 0.88 | 0.914 | 1.02 | 0.756 | 0.726 | 0.914 | 1.05 | 1.04 |
| NCI-H441 | 0.928 | 1.2 | 1.22 | 1.12 | 0.63 | 0.952 | 0.955 | 1.04 | 1.08 | 1.06 | 0.793 | 0.972 | 1.01 | 0.892 |
| NCI-H460 | 0.963 | 1.05 | 1.02 | 1.06 | 0.742 | 0.968 | 0.96 | 0.977 | 0.945 | 0.925 | 0.95 | 0.968 | 0.96 | 0.989 |
| NCI-H520 | 0.808 | 0.901 | 1.07 | 1.04 | 0.777 | 0.809 | 0.797 | 0.741 | 0.692 | 0.656 | – | 1.05 | 1.01 | 0.861 |
| NCI-H522 | 0.889 | 0.962 | 1.13 | 0.966 | 0.966 | 0.909 | 0.795 | 1.17 | 0.927 | 1.01 | 0.997 | 0.996 | 0.928 | 0.915 |
| NCI-H596 | 0.777 | 1.22 | 1.05 | 0.98 | 0.841 | 1.03 | 0.953 | 1.02 | 0.94 | 0.997 | 0.999 | 1.1 | 0.987 | 0.851 |
| NCI-H647 | 0.825 | 1 | 0.903 | 0.892 | 0.707 | 0.856 | 0.809 | 0.889 | 0.738 | 0.621 | 0.745 | 0.903 | 0.867 | 0.712 |
| NCI-H650 | 0.85 | 1.04 | 0.835 | 1.01 | 0.877 | 0.873 | 0.964 | 0.853 | 0.867 | 0.889 | 0.769 | 0.969 | 0.874 | 0.696 |
| NCI-H661 | 1.11 | 1.03 | 1.03 | 0.97 | 0.834 | 1.02 | 1.02 | 0.971 | 0.999 | 0.846 | 0.836 | 0.981 | 1.02 | 0.803 |
| NCI-H727 | 1.02 | 0.92 | 0.987 | 0.808 | 0.842 | 0.885 | 0.887 | 0.948 | 0.898 | 0.97 | 0.763 | 1.11 | 1 | 0.81 |
| NCI-H838 | 0.893 | 1.06 | 0.98 | 0.882 | 0.824 | 0.946 | 0.833 | 0.886 | 0.83 | 0.761 | 0.822 | 1.05 | 0.981 | 0.95 |
| NCI-H1299 | 1.09 | 1.07 | 1.01 | 1.06 | 0.897 | 0.98 | 1.01 | 1.01 | 1.06 | 0.993 | 0.997 | 0.983 | 0.982 | 0.954 |
| NCI-H1355 | 0.839 | 1.13 | 1.02 | 1.02 | 0.955 | 0.979 | 0.948 | 0.972 | 0.864 | 0.902 | 0.855 | 0.97 | 0.948 | 0.893 |
| NCI-H1395 | – | 0.925 | 0.837 | 0.944 | 0.888 | 0.787 | 0.801 | 0.838 | 0.664 | 0.703 | – | 0.922 | 0.746 | 0.833 |
| NCI-H1437 | 0.935 | 1.11 | 0.994 | 1.14 | 0.891 | 1.02 | 0.942 | 0.998 | 0.983 | 0.929 | 0.951 | 0.993 | 0.969 | 0.763 |
| NCI-H1563 | 0.959 | 0.971 | 0.976 | 0.955 | 0.989 | 0.947 | 0.915 | 0.831 | 0.866 | 0.748 | 0.894 | 1.02 | 0.837 | 0.864 |
| NCI-H1623 | 1.04 | 1.1 | 0.927 | 1.04 | 0.774 | 1.04 | 0.863 | 0.949 | 0.82 | 0.991 | 0.933 | 0.972 | 1.12 | 0.889 |
